Each structure is given as a SMILES string.

In test [1] the target is T1, RibU W97Y labeled with 5FW (Lactococcus lactis subsp. cremoris, UniProt D8KIE9, W97Y).
T1 construct: His10; made in house; host or cells: Lactococcus lactis Trp auxotroph NZ9000-trp with pMG36e-trpRS
The experiment in a line: Fluorescence titration of RibU with RBF, 5FW variant. Format: binding. As to the method: (§1) Fluorescence titration experiments of the different RibU constructs with RBF at 20 °C allowed estimation of the impact of W68 fluorination or 5-methylation on the binding affinity (Figure 3 and Table 5).
(§2) Figure 3 Titration of Trp analog labeled RibU W97Y proteins with RBF. The RBF fluorescence was measured at the indicated RBF concentrations in the absence (triangles) or presence (dots) of the W97Y RibU variant (see insets). The difference between these two signals were calculated to build the titration curve. This curve was used to compute the RBF Kd (see Experimental Section in the Supporting Information). […]
(§3) Binding assays – Fluorescence titrations of RibU with RBF.
(§4) The concentration of the riboflavin stock was established using a Jasco V-650 spectrophotometer with an ε435 of 12600 M-1.cm-1 The concentration of RibU-His was calculated using a Nanodrop (Thermo […]
(§5) Riboflavin was excited at 435 nm and emission was recorded between 450 nm and 700 nm using a FluoroLog 322 Spectrofluorometer (Jobin Yvon). […] Titration experiments were performed in a 1 mL quartz cuvette at 20 °C as described.13 In brief, purified and desalted RibU protein in gel filtration buffer was titrated with RBF and after each addition the emission spectrum was recorded twice, corrected for buffer emission and instrument response and integrated. […]

The target in test [2] is T2, RibU W97Y labeled with 5MeW (Lactococcus lactis subsp. cremoris, UniProt D8KIE9, W97Y).
T2 construct: His10; made in house; host or cells: Lactococcus lactis Trp auxotroph NZ9000-trp with pMG36e-trpRS
The experiment in a line: Fluorescence titration of RibU with RBF, 5MeW variant. Type of test: binding. The method, then: as §1, §2, §3, §4, §5

The target in test [3] is T3, RibU W97Y labeled with 5,6,7triFW (Lactococcus lactis subsp. cremoris, UniProt D8KIE9, W97Y).
T3 construct: His10; made in house; host or cells: Lactococcus lactis Trp auxotroph NZ9000-trp with pMG36e-trpRS
Nature of the test: Fluorescence titration of RibU with RBF, 5,6,7triFW variant. Type of test: binding. As to the method:
as §1, §2, §3, §4, §5

For test [4], the system named is RibU W97Y. The experiment in a line: Fluorescence titration of RibU with RBF, natural Trp (W). Format: binding, Lactococcus lactis. Conditions: extrapolation to RibU labeled with tetrafluoroTrp. As to the method:
as §1
(§6) Figure 3 Titration of Trp analog labeled RibU W97Y proteins with RBF. The RBF fluorescence was measured at the indicated RBF concentrations in the absence (triangles) or presence (dots) of the W97Y RibU variant (see insets). The difference between these two signals were calculated to build the titration curve. This curve was used to compute the RBF Kd (see Experimental Section in the Supporting Information). Panels from left to right present the results for RibU W97Y, labeled with 5MeW, 5FW, 5,7diFW, and 5,6,7triFW, respectively.
as §3, §4
(§7) Riboflavin was excited at 435 nm and emission was recorded between 450 nm and 700 nm using a FluoroLog 322 Spectrofluorometer (Jobin Yvon). The excitation and emission s lits were set at 1.1 nm and 3.5 nm, respectively. Titration experiments were performed in a 1 mL quartz cuvette at 20 °C as described.13 In brief, purified and desalted RibU protein in gel filtration buffer was titrated with RBF and after each addition the emission spectrum was recorded twice, corrected for buffer emission and instrument response and integrated. The integrated emission intensities were corrected for dilution and compared to the integrated emission of riboflavin collected under these conditions in the absence […]
(§8) The Kd of RBF was derived by first determining the difference in fluorescence signal between the blan k titration with only the gel filtration buffer and the titration using the protein RibU -His in buffer. The obtained curve was fitted using equation I and the program OriginLab16 with n = number of binding sites, X = total RibU concentration, and S = maximal fluorescence signal in A.U. […]

Test [5] concerns the target T4, RibU W97Y (Lactococcus lactis subsp. cremoris, UniProt D8KIE9, W97Y).
T4 construct: His10; made in house; host or cells: Lactococcus lactis Trp auxotroph NZ9000-trp with pMG36e-trpRS
The test is described as above. Type of test: binding. As to the method: as §1, §6, §3, §4, §7, §8

T4 sequence (D8KIE9 whole entry W97Y): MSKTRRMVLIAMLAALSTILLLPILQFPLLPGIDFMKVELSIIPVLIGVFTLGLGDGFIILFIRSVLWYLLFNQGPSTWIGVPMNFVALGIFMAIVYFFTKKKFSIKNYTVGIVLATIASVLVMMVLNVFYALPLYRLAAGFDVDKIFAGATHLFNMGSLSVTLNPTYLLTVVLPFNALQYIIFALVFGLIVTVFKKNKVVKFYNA
T3 sequence (D8KIE9 whole entry W97Y): as above
T2 sequence (D8KIE9 whole entry W97Y): as above
T1 sequence (D8KIE9 whole entry W97Y): as above

As usually defined, the Kd is the concentration at which binding is half-saturated. Lower therefore signals tighter binding. With `Cc1cc2nc3c(=O)[nH]c(=O)nc-3n(C[C@H](O)[C@H](O)[C@H](O)CO)c2cc1C` [RBF, riboflavin], the Kd is 5.4 ± 1 nM in test [1], 1.2 ± 0.1 nM in test [2], 24.9 ± 2.7 nM in test [3] and 1.8 ± 0.8 nM at RibU W97Y [5]. In test [3] (20 °C, up to three fluoro-atoms introduced), the “Fold lowering of the affinity by progressive fluorination of W68” value is 15 fold. The “Lowering of ΔG for RBF binding” value in the test on RibU W97Y [4] is about 1.9 kcal/mol. Also, at RibU W97Y [5] (RibU containing natural Trp), the “Electrostatic contribution of W68 as share of total RBF binding energy” value is reported as 15–20%.

These data come from publication PMC9354243, “The Role of Tryptophan in π Interactions in Proteins: An Experimental Approach” (Journal of the American Chemical Society, 2022).
